Reference: patent US6416642B1, “Method and apparatus for continuous liquid flow in microscale channels using pressure injection, wicking, and electrokinetic injection” (Caliper Technologies Corp., priority 1999, dated 2002)

System: purinergic, P2Y receptor
Test: Calcium flux assay in continuous-flow microfluidic device (Fluo-3 fluorescence)
Assay type: cell-based
Details: THP-1 cells loaded with Fluo-3; UTP 0-3 μM; FIG. 13 upper trace
Protocol: Using a continuous flow format in planar chips using a wick to generate constant pressure driven flow, cells were mixed with an agonist and down-stream fluorescence detectors were used to monitor indicator cells using Fluo-3 (Molecular Probes Inc.) calcium sensitive fluorescent dye as a probe for receptor activation of calcium fluxes. THP-1 cells were loaded with Fluo-3 by incubation with a 4 μM concentration of the Fluo-3 AM (acetoxymethyl ester) in Hank's Balanced Salt Solution(HBSS) containing 20 mM HEPES, pH 7.0, and 1 mg/ml bovine serum albumin. After a 40 minute incubation at 37° C., Syto-6, a fluorescent DNA stain, was added to 2.5 μM, and the cells were incubated for an additional 10 minutes at room temperature. The cells were then washed free of excess dye by pelleting at 300×g for 5 minutes and resuspending and repelleting. The cells were resuspended in Cell Buffer (HBSS containing 20 mM HEPES, pH 7.0, 1 mg/ml BSA and 10% Optiprep). […]
By taking the ratio of the two fluorescent dyes, it is possible to normalize the calcium flux response in the THP-1 cells since the DNA staining intensity is a constant in diploid, resting cells, and thereby quantitate the increase in calcium concentration.

In the case of `O=c1ccn([C@@H]2O[C@H](COP(=O)(O)OP(=O)(O)OP(=O)(O)O)[C@@H](O)[C@H]2O)c(=O)[nH]1` [UTP], the “fluorescence of the calcium sensitive dye (intracellular free calcium)” value is reported as “increases with UTP treatment in a dose dependent manner”.
